Test results as given in patent publication US5276023A, “19-nor-steroid esters” (Roussel Uclaf, priority 1989, dated 1994).

Legend:
[1] = test system: rat thymocytes; experiment: anti-glucocorticoid activity vis-a-vis dexamethasone: incorporation of uridine in rat thymocytes; format: cell-based; conditions: for inhibition at 1 µM / inhibition at 0.1 µM / inhibition at 0.01 µM: Rattus norvegicus, Thymocyte, 3 h; for inhibition at 1 µM / inhibition at 0.1 µM / inhibition at 0.01 µM / % of inhibition of the incorporation of uridine: with 5×10^-8 M dexamethasone, 3 hours at 37° C.; for antiglucocorticoid activity: conclusion in words from the thymocyte study
Description: 2) Anti-glucocorticoid activity vis-a-vis dexamethasone
Incorporation of uridine in rat thymocytes
Glucocorticoids cause an inhibition of the incorporation of nucleosides in lymphoid tissue and the measurement of the incorporation of radio-active uridine in the thymocytes in the presence of a product under test allow its glucocorticoid activity to be evaluated.
It was in accordance with the technique described by Dausse et al (3). The thymus of a suprarenalectomized rat weighing 160 to 180 g was removed, shredded and homogenized slowly using a teflon-flask homogenizer in Hanks solution. The cellular suspension obtained was filtered on gauze and then centrifuged at 800 g×10 mn. A new centrifugation was then carried out at 800 g×10 mn. The deposit was suspended in a nutritive medium (M.E.M. Gibco) and the cellular concentration was adjusted to approximately 20×10^6 cells per ml. Aliquots of 250 ul were then incubated under carbogen for 3 hours at 37° C. with 5×10^-8 M of dexamethasone in the presence or not of increasing concentrations of product (10^-8 M to 10^-6 M). 0.1 uCi of tritiated uridine was then added to each incubate and the incubation was continued for one hour. The incubates were then cooled and 1 ml of a cold solution of trichloracetic acid (TCA) at 5 % weight/volume was added. The precipitates were collected on Whatman GF/C filters and were washed with 4×2 ml of 5% iced TCA. The radioactivity retained on the filters (representing the tritiated uridine incorporated in the thymocytes) was measured using a liquid scintillation spectrometer.

[2] = target: T1, Androgen receptor (Rattus norvegicus, UniProt P15207); experiment: relative bond affinity for the androgen receptor of rat's prostate; format: binding; conditions: tritiated testosterone, RBA=100 (CH)/(CX), reference cold testosterone; for relative bond affinity (RBA), Androgen 0,5H: half an hour incubation at 0° C.; for relative bond affinity (RBA), Androgen: incubation at 0° C.
T1 construct: The prostates were removed, weighed and homogenized; from tissue; host or cells: prostate cytosol (105,000 g supernatant) of castrated male rats
T1 sequence (P15207 1-902): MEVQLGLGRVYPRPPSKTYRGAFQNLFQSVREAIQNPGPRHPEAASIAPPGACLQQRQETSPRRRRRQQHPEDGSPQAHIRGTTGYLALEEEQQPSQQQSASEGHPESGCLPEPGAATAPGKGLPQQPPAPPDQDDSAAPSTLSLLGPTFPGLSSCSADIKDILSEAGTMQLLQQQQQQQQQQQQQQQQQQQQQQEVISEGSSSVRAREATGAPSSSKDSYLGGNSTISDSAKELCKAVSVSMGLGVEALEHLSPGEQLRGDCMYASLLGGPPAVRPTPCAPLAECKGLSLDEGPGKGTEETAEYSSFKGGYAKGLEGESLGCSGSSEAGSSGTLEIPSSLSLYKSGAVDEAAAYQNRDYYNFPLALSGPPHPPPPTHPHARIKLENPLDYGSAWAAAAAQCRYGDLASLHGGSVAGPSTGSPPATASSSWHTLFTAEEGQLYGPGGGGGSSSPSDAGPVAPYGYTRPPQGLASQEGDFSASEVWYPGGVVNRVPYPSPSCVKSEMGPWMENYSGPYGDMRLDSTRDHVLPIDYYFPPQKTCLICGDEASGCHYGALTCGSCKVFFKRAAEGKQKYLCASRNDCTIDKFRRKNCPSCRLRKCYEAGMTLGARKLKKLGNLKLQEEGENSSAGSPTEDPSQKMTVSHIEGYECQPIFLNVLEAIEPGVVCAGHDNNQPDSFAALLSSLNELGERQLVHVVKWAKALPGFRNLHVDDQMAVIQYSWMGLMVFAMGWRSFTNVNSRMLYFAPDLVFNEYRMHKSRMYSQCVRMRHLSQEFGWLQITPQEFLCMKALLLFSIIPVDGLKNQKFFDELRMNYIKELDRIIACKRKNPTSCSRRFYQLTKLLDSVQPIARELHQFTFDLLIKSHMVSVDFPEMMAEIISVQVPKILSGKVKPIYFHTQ
Experimental: 1) Measurement of the relative bond affinity for the receptors of steroid hormones:
Androgen receptor of rat's prostate
Male rats weighing 160 to 200 g were castrated and 24 hours after the castration, the animals were killed. The prostates were removed, weighed and homogenized at 0° C. using a Potter teflon-flask in a (TSDPM) 10 mM Tris, 0.25M saccharose, […] phenylmethanesulfonylfluoride, 20 mM molybdate, 2 mM dithiothreitol, HCl pH 7.4 buffer (1 g of tissue per 5 ml of TSDPM). The homogenate was ultracentrifuged (105,000 g×60 mn) at 0° C. and aliquots of the supernatant "cytosol", were incubated at 0° C. with a constant concentration in the presence of increasing concentrations (0-1000 nM) of cold testosterone or of the product under test. […]
Calculation of the relative bond affinity:
The calculation of the relative bond affinity (RBA) was identical for all receptors. The following two curves were drawn: the percentage of bonded tritiated hormone B/T as a function of the logarithm of the concentration of the cold reference hormone and B/T as a function of the logarithm of the concentration of the cold product under test. The straight line of the equation:
B max=Percentage of bonded tritiated hormone for an incubation of this tritiated hormone at the concentration (T).
B min=Percentage of bonded tritiated hormone for an incubation of this tritiated hormone at the concentration (T) in the presence of a great excess of cold hormone (2500×10^-9 M).
The intersections of the straight line I50 and the curves allowed the evaluation of the concentrations of the cold reference hormone (CH) and of the cold product under test (CX) which inhibited by 50% the bonding of the tritiated hormone on the receptor. The relative bond affinity (RBA) of the product under test was determined by the equation RBA=100 (CH)/(CX)

Row | Compound | inhibition at 1 µM ([1]; product at 10^-6 M) [%] | inhibition at 0.1 µM ([1]; product at 10^-7 M) [%] | inhibition at 0.01 µM ([1]; product at 10^-8 M) [%] | antiglucocorticoid activity [1] | relative bond affinity (RBA), Androgen 0,5H [2] | relative bond affinity (RBA), Androgen [2] | % of inhibition of the incorporation of uridine ([1]; product at 10^-6 M) [%] | % of inhibition of the incorporation of uridine ([1]; product at 10^-7 M) [%] | % of inhibition of the incorporation of uridine ([1]; product at 10^-8 M) [%] | relative bond affinity (RBA), Androgen 0,5H ([2]; listed as EX. 6) | relative bond affinity (RBA), Androgen ([2]; listed as EX. 6) | relative bond affinity (RBA), Androgen 0,5H ([2]; listed as EX. 5) | relative bond affinity (RBA), Androgen ([2]; listed as EX. 5)
1 | CC#C[C@]1(OC(=O)CCC(=O)O)CC[C@H]2[C@@H]3CCC4=CC(=O)CCC4=C3[C@@H](c3ccc(SC)cc3)C[C@@]21C [Example 12, Sodium and 11β-[4-methylthio-phenyl]-17α-(1-propynyl)-Δ^4,9 estradien-3-one-17β-yl succinate] | 104 | 62 | 8 | good | 0,8 | 0,3 | – | – | – | – | – | – | –
2 | CN(C)c1ccc([C@H]2C[C@@]3(C)[C@@H](CC[C@]3(C#CCl)OC(=O)CCC(=O)O)[C@@H]3CCC4=CC(=O)CCC4=C32)cc1 [Example 10, Sodium and 21-chloro-11β-[4-dimethylamino-phenyl]-19-nor-17α-Δ^4,9-pregnadien-3-one-20-yn-17β-yl succinate] | 78 | 19 | 0 | – | 1,9 | 8,6 | – | – | – | – | – | – | –
3 | CN(C)c1ccc([C@H]2C[C@@]3(C)[C@@H](CC[C@@]3(O)C#CCOC(=O)CCC(=O)O)[C@@H]3CCC4=CC(=O)CCC4=C32)cc1 [Example 4, Sodium and 3-[11β-[4-dimethylamino-phenyl]-Δ^4,9-estradien-17β-ol-3-one-17α-yl]-2-propynyl succinate] | 22 | 2.5 | 0 | – | 5,1 | 2,8 | – | – | – | – | – | – | –
4 | CC#C[C@]1(OC(=O)CCC(=O)O)CC[C@H]2[C@@H]3CCC4=CC(=O)CCC4=C3[C@@H](c3ccc(N(C)C)cc3)C[C@@]21C [Example 6, Sodium 11β-[4-dimethylamino-phenyl]17α-(1-propynyl)-Δ^4,9 - estradien-3-one-17β-yl succinate] | – | – | – | – | – | – | 78 | 27 | 0 | 2,2 | 4,1 | – | –
5 | CN(C)c1ccc([C@H]2C[C@@]3(C)[C@@H](CC[C@@]3(O)/C=C\COC(=O)CCC(=O)O)[C@@H]3CCC4=CC(=O)CCC4=C32)cc1 [Example 2, Sodium (Z)-3-[11β-[4-dimethylamino-phenyl]-Δ^4,9-estradien-17β-ol-3-one-17α-yl]-2-propenyl succinate] | 68 | 1 | 0 | – | 12 | 39 | – | – | – | – | – | – | –
6 | CC#C[C@]1(OC(=O)CCC(=O)O)CC[C@H]2[C@@H]3CCC4=CC(=O)CCC4=C3[C@@H](c3ccc(N(C)C)cc3)C[C@@]21C [Example 5, 11β-[4-dimethylamino-phenyl]-17-(1-propynyl)-Δ^4,9-estradien-3-one-17β-yl acid succinate] | – | – | – | good | – | – | 135 | 100 | 28 | – | – | 0,6 | 1
